# In patent US12595226B2, “Carbonate containing lipid compounds and compositions for intracellular delivery of therapeutic agents” (ModernaTX, Inc., priority 2019, dated 2026):
# Experiment: Residual lipid levels in the liver of mice after LNP administration
# Type: in vivo, CD-1 mice
# Details: calculation assumes a 25 g mouse with a 1.5 g liver, >95% equals very slowly metabolism of the lipid
row,Approx. Percent Total Dose of Parent Lipid Remaining at 24 h,Compound
1,2%,"CCCCCCCCCOC(=O)OCCCCCCN(CCO)CCCCCCCC(=O)OC(CCCCCCCC)CCCCCCCC [Compound 6, Heptadecan-9-yl 8-((2-hydroxyethyl)(6-(((nonyloxy)carbonyl)oxy)hexyl)amino)octanoate]"
2,51%,"CCCCCCCCC(CCCCCCCC)OC(=O)CCCCCCCN(CCO)CCCCCCOC(=O)OCCC(CCCCC)CCCCC [Compound 64, Heptadecan-9-yl 8-((2-hydroxyethyl)(6-((((3-pentyloctyl)oxy)carbonyl)oxy)hexyl)amino)octanoate]"
3,>95%,"CCCCCCCCC(CCCCCCCC)OC(=O)CCCCCCCN(CCCCCCOC(=O)OCCC(CCCCCC)CCCCCC)CCCNc1c(NC)c(=O)c1=O [Compound 65, Heptadecan-9-yl 8-((6-((((3-hexylnonyl)oxy)carbonyl)oxy)hexyl)(3-((2-(methylamino)-3,4-dioxocyclobut-1-en-1-yl)amino)propyl)amino)octanoate]"
4,48%,"CCCCCCCCC(CCCCCCCC)OC(=O)CCCCCCCN(CCO)CCCCCCOC(=O)OCCC(CCCCCC)CCCCCC [Compound 66, Heptadecan-9-yl 8-((6-((((3-hexylnonyl)oxy)carbonyl)oxy)hexyl)(2-hydroxyethyl)amino)octanoate]"
5,>95%,"CCCCCCCCC(CCCCCCCC)OC(=O)CCCCCCCN(CCCCCCOC(=O)OCCC(CCCCC)CCCCC)CCCNc1c(NC)c(=O)c1=O [Compound 67, Heptadecan-9-yl 8-((3-((2-(methylamino)-3,4-dioxocyclobut-1-en-1-yl)amino)propyl)(6-((((3-pentyloctyl)oxy)carbonyl)oxy)hexyl)amino)octanoate]"
